Measurements as given in patent US7943770B2, “Fused quinoline derivative and use thereof” (Takeda Pharmaceutical Company Limited, priority 2004, dated 2011).
Structures can show the parent of a compound that is named as a salt.

Molecular target: T1, hNK2 receptor (Homo sapiens, UniProt P21452)
T1 construct: host or cells: CHO cells
T1 sequence (P21452 1-398): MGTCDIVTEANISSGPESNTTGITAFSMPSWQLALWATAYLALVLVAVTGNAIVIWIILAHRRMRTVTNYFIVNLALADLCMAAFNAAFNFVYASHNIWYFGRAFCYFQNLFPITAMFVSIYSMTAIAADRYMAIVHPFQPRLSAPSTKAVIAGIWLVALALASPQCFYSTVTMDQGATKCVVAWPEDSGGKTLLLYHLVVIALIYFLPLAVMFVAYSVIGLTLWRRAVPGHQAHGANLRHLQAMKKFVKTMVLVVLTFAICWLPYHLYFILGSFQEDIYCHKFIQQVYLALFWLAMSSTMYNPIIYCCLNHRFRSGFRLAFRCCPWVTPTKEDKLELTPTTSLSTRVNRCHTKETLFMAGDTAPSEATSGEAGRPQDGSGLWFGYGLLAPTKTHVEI
Experiment: Radio-ligand ([125I]-NKA) receptor binding inhibitory activity using membrane fraction of hNK2 receptor-expressing CHO cell
Conditions: membrane fraction of hNK2 receptor-expressing CHO cells, 25° C., 30 min
Summary of the method: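 Membranes from hNK2-expressing CHO cells (20 μg/mL suspension) incubated with test compound and [125I]-NKA ([…] solution as added) in Tris-HCl pH 7.4 with BSA, protease inhibitors, 3 mM MnCl2, 25 °C, 30 min. Bound radioactivity by GF/C filtration and scintillation; inhibition expressed relative to specific binding (total minus unlabeled-NKA non-specific).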

In the case of `Cc1ccc(NC(=O)N[C@@H]2CCCC[C@@H]2C(=O)N2CC[C@@H]3[C@H](c4ccccc4)Nc4ccccc4[C@@H]32)cc1` [Example 138, N-(4-Methylphenyl)-N′-((1R,2S)-2-{[(3aR,4R,9bR)-4-phenyl-2,3,3a,4,5,9b-hexahydro-1H-pyrrolo[3,2-c]quinolin-1-yl]carbonyl}cyclohexyl)urea], the IC50 is reported as < 1 nM.
For `O=C(Nc1ccc2c(c1)OCO2)N[C@@H]1CCCC[C@@H]1C(=O)N1CC[C@@H]2[C@H](c3ccccc3)Nc3ccccc3[C@@H]21` [Example 148, N-1,3-Benzodioxol-5-yl-N′-((1R,2S)-2-{[(3aR,4R,9bR)-4-phenyl-2,3,3a,4,5,9b-hexahydro-1H-pyrrolo[3,2-c]quinolin-1-yl]carbonyl}cyclohexyl)urea], the IC50 was < 1 nM.
With `COC[C@@H]1Nc2ccccc2[C@H]2[C@@H]1CCN2C(=O)[C@H]1CCCC[C@H]1NC(=O)c1ccc(C)nc1` [Example 211, N-((1R,2S)-2-{[(3aR,4R,9bR)-4-(Methoxymethyl)-2,3,3a,4,5,9b-hexahydro-1H-pyrrolo[3,2-c]quinolin-1-yl]carbonyl}cyclohexyl)-6-methylnicotinamide] the IC50 was < 10 nM.
`COC(=O)CCCCC(=O)N[C@@H]1CCCC[C@@H]1C(=O)N1CC[C@@H]2[C@H](c3ccccc3)Nc3ccccc3[C@@H]21` [Example 116, Methyl 6-oxo-6-[((1R,2S)-2-{[(3aR,4R,9bR)-4-phenyl-2,3,3a,4,5,9b-hexahydro-1H-pyrrolo[3,2-c]quinolin-1-yl]carbonyl}cyclohexyl)amino]hexanoate] was tested, and the IC50 was < 10 nM.
With `O=C(N[C@@H]1CCCC[C@@H]1C(=O)N1CC[C@@H]2[C@H](c3nccs3)Nc3ccccc3[C@@H]21)c1ccccc1` (relative stereo) [Example 25, N-((1R,2S)-2-{[(3aR*,4R*,9bR*)-4-(1,3-Thiazol-2-yl)-2,3,3a,4,5,9b-hexahydro-1H-pyrrolo[3,2-c]quinolin-1-yl]carbonyl}cyclohexyl)benzamide] the IC50 was < 10 nM.
In the case of `COC[C@@H]1Nc2ccccc2[C@H]2[C@@H]1CCN2C(=O)[C@H]1CCCC[C@H]1NC(=O)c1ccc2[nH]nnc2c1` [Example 219, N-((1R,2S)-2-{[(3aR,4R,9bR)-4-(methoxymethyl)-2,3,3a,4,5,9b-hexahydro-1H-pyrrolo[3,2-c]quinolin-1-yl]carbonyl}cyclohexyl)-1H-1,2,3-benzotriazole-5-carboxamide], the IC50 is reported as < 1 nM.
With `O=C(CCc1ccccc1)N[C@@H]1CCCC[C@@H]1C(=O)N1CC[C@@H]2[C@H](C3CC3)Nc3ccccc3[C@@H]21` [Example 181, N-((1R,2S)-2-{[(3aR,4S,9bR)-4-Cyclopropyl-2,3,3a,4,5,9b-hexahydro-1H-pyrrolo[3,2-c]quinolin-1-yl]carbonyl}cyclohexyl)-3-phenylpropanamide] the IC50 was < 1 nM.
In the case of `CC(C)c1ccc(NC(=O)N[C@@H]2CCCC[C@@H]2C(=O)N2CC[C@@H]3[C@H](c4ccccc4)Nc4ccccc4[C@@H]32)cc1` [Example 150, N-(4-Isopropylphenyl)-N′-((1R,2S)-2-{[(3aR,4R,9bR)-4-phenyl-2,3,3a,4,5,9b-hexahydro-1H-pyrrolo[3,2-c]quinolin-1-yl]carbonyl}cyclohexyl)urea], the IC50 is reported as < 10 nM.
`CCC[C@@H]1Nc2ccccc2[C@H]2[C@@H]1CCN2C(=O)[C@H]1CCCC[C@H]1NC(=O)c1ccc2[nH]c(C)nc2c1` [Example 201, 2-methyl-N-((1R,2S)-2-{[(3aR,4S,9bR)-4-propyl-2,3,3a,4,5,9b-hexahydro-1H-pyrrolo[3,2-c]quinolin-1-yl]carbonyl}cyclohexyl)-1H-benzimidazole-5-carboxamide] was tested, and the IC50 was < 1 nM.
In the case of `COC[C@@H]1Nc2ccccc2[C@H]2[C@@H]1CCN2C(=O)[C@H]1CCCC[C@H]1NC(=O)c1cc2ccccc2[nH]1` [Example 229, N-((1R,2S)-2-{[(3aR,4R,9bR)-4-(Methoxymethyl)-2,3,3a,4,5,9b-hexahydro-1H-pyrrolo[3,2-c]quinolin-1-yl]carbonyl}cyclohexyl)-4H-indole-2-carboxamide], the IC50 is reported as < 1 nM.
`O=C(NC1CCCCC1)N[C@@H]1CCCC[C@@H]1C(=O)N1CC[C@@H]2[C@H](c3ccccc3)Nc3ccccc3[C@@H]21` [Example 149, N-Cyclohexyl-N′-((1R,2S)-2-{[(3aR,4R,9bR)-4-phenyl-2,3,3a,4,5,9b-hexahydro-1H-pyrrolo[3,2-c]quinolin-1-yl]carbonyl}cyclohexyl)urea] was tested, and the IC50 was < 10 nM.
With `O=C(N[C@@H]1CCCC[C@@H]1C(=O)N1CC[C@@H]2[C@H](c3ccccc3)Nc3ccc(F)cc3[C@@H]21)c1ccccc1` [Example 61, N-((1R,2S)-2-{[(3aR,4R,9bR)-8-Fluoro-4-phenyl-2,3,3a,4,5,9b-hexahydro-1H-pyrrolo[3,2-c]quinolin-1-yl]carbonyl}cyclohexyl)benzamide] the IC50 was < 10 nM.
In the case of `CC(C)CCNC(=O)N[C@@H]1CCCC[C@@H]1C(=O)N1CC[C@@H]2[C@H](c3ccccc3)Nc3ccccc3[C@@H]21` [Example 166, N-(3-Methylbutyl)-N′-((1R,2S)-2-{[(3aR,4R,9bR)-4-phenyl-2,3,3a,4,5,9b-hexahydro-1H-pyrrolo[3,2-c]quinolin-1-yl]carbonyl}cyclohexyl)urea], the IC50 is reported as < 1 nM.
With `CNC[C@@H]1Nc2ccccc2[C@H]2[C@@H]1CCN2C(=O)[C@H]1CCCC[C@H]1NC(=O)c1ccccc1` (relative stereo) [Example 53, N-[(1R,2S)-2-({(3aR*,4R*,9bR*)-4-[(Methylamino)methyl]-2,3,3a,4,5,9b-hexahydro-1H-pyrrolo[3,2-c]quinolin-1-yl}carbonyl)cyclohexyl]benzamide dihydrochloride] the IC50 was < 10 nM.
With `Cn1cccc1[C@@H]1Nc2ccccc2[C@H]2[C@@H]1CCN2C(=O)[C@H]1CCCC[C@H]1NC(=O)c1ccccc1` (relative stereo) [Example 23, N-((1R,2S)-2-{[(3aR*,4R*,9bR*)-4-(1-Methyl-1H-pyrrol-2-yl)-2,3,3a,4,5,9b-hexahydro-1H-pyrrolo[3,2-c]quinolin-1-yl]carbonyl}cyclohexyl)benzamide] the IC50 was < 10 nM.
`COC[C@@H]1Nc2ccccc2[C@H]2[C@@H]1CCN2C(=O)[C@H]1CCCC[C@H]1NC(=O)c1ccc2[nH]cnc2c1` [Example 259, N-((1R,2S)-2-{[(3aR,4R,9bR)-4-(Methoxymethyl)-2,3,3a,4,5,9b-hexahydro-1H-pyrrolo[3,2-c]quinolin-1-yl]carbonyl}cyclohexyl)-1H-benzimidazole-5-carboxamide] was tested, and the IC50 was < 10 nM.
For `O=C(N[C@@H]1CCCC[C@@H]1C(=O)N1CC[C@H]2[C@@H](c3ccsc3)Nc3ccccc3[C@H]21)c1ccccc1` (relative stereo) [Example 18, N-((1R,2S)-2-{[(3aS*,4S*,9bS*)-4-(3-Thienyl)-2,3,3a,4,5,9b-hexahydro-1H-pyrrolo[3,2-c]quinolin-1-yl]carbonyl}cyclohexyl)benzamide], the IC50 was < 1 nM.
`Cc1cc(C(=O)N[C@@H]2CCCC[C@@H]2C(=O)N2CC[C@@H]3[C@H](c4ccsc4)Nc4ccccc4[C@@H]32)ccc1C(N)=O` [Example 191, 2-Methyl-N^4-((1R,2S)-2-{[(3aR,4R,9bR)-4-(3-thienyl)-2,3,3a,4,5,9b-hexahydro-1H-pyrrolo[3,2-c]quinolin-1-yl]carbonyl}cyclohexyl)terephthalamide] was tested, and the IC50 was < 1 nM.
In the case of `O=C(Nc1ccccn1)N[C@@H]1CCCC[C@@H]1C(=O)N1CC[C@@H]2[C@H](c3ccccc3)Nc3ccccc3[C@@H]21` [Example 170, N-((1R,2S)-2-{[(3aR,4R,9bR)-4-Phenyl-2,3,3a,4,5,9b-hexahydro-1H-pyrrolo[3,2-c]quinolin-1-yl]carbonyl}cyclohexyl)-N′-pyridin-2-ylurea], the IC50 is reported as < 10 nM.
